Test results: patent US11648395B2, “Electrode assemblies for neuromodulation” (Cardionomic, Inc., priority 2018, dated 2023)

Tested on: normal, non-HF ovine model
Assay: Correlation of right and left ventricle contractility (max dP/dt) after injection, heartbeat-by-heartbeat
Format: in vivo
Conditions: max(dP/dt) used as surrogate for contractility, after injection (calcium: 5 mL)
From the text: The correlation was a heartbeat-by-heartbeat analysis. Pressure measurements, taken by a Millar catheter comprising a MEMS pressure sensor, in units of max(dP/dt) was used as a surrogate for contractility. The first change, a dobutamine injection, provided a very high contractility increase greater than 500%. The average correlation between right ventricle contractility and left ventricle contractility was very good at 0.91, where 1.00 is a perfect correlation. Accordingly, if a subject is given a dobutamine injection, measuring changes to right ventricle contractility can provide accurate information about changes to left ventricle contractility. The first change was repeated three times. The second change, calcium injection at 5 mL, provided a contractility increase of about 20%. […] The average correlation between right ventricle contractility and left ventricle contractility using a Millar (MEMS) sensor on a catheter was very good at 0.91. The average correlation between right ventricle contractility and left ventricle contractility using a fluid-filled lumen of a Swan-Ganz catheter in communication with an external pressure sensor was also very good at 0.87. Accordingly, under certain circumstances such as measurement of an animal (normal, non-HF ovine model) model, if a subject is given a calcium injection, measuring changes to right ventricle contractility with a MEMS sensor or a fluid filled lumen can provide accurate information about changes to left ventricle contractility.

Molecule: calcium [Calcium Injection]
- Contractility % Increase: ~20%
- Contractility % Increase (listed as calcium injection): about 20%

Molecule: CC(CCc1ccc(O)cc1)NCCc1ccc(O)c(O)c1 (stereo not shown) [Dobutamine Injection, dobutamine]
- Contractility % Increase: >500%
- Contractility % Increase (listed as dobutamine injection): greater than 500%
